Laboratory results taken from BindingDB's records for PubMed 11454940 (Sanofi Synthelabo, 2001).
Several values for one entry are separate records, joined by “and”; a condition that tells them apart may be missing. Equal values may be shown once.

How the values were obtained:
[1] = target: Gamma-aminobutyric acid receptor subunit alpha-1 (Rattus norvegicus, UniProt P62813)
[2] = target: Gamma-aminobutyric acid receptor subunit alpha-2 (Rattus norvegicus, UniProt P23576)
[3] = target: Gamma-aminobutyric acid receptor subunit alpha-3 (Rattus norvegicus, UniProt P20236)
Gamma-aminobutyric acid receptor subunit alpha-3, sequence (P20236 whole entry I342M/K409L): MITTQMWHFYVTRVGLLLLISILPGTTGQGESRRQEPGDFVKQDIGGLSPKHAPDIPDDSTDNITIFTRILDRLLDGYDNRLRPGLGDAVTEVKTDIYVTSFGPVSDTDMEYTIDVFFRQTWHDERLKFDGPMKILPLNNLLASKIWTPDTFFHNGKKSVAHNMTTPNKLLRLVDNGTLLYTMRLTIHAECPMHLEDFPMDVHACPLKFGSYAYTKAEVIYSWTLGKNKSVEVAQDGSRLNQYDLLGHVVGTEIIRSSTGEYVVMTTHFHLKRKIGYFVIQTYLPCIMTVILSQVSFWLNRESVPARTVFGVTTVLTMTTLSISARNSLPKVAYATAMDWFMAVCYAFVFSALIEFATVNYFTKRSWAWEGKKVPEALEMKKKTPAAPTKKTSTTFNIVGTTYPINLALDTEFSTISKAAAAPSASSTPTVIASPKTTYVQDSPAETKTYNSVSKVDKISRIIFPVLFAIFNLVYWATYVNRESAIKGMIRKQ

[4] = target: Gamma-aminobutyric acid receptor subunit alpha-5 (Rattus norvegicus, UniProt P19969)
Gamma-aminobutyric acid receptor subunit alpha-5, sequence (P19969 whole entry): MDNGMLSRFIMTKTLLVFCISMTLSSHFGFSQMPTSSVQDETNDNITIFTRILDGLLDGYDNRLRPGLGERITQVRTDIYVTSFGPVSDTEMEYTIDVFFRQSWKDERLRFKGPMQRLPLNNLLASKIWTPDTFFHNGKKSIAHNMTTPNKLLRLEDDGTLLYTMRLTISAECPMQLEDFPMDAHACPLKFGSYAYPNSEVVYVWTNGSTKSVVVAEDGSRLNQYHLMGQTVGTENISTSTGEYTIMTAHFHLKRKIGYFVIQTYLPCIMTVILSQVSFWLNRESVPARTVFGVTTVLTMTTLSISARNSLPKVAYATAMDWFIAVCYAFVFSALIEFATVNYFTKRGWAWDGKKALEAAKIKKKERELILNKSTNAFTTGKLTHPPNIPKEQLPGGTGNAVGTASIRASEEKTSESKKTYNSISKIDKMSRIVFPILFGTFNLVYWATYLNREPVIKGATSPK

Gamma-aminobutyric acid receptor subunit alpha-2, sequence (P23576 whole entry): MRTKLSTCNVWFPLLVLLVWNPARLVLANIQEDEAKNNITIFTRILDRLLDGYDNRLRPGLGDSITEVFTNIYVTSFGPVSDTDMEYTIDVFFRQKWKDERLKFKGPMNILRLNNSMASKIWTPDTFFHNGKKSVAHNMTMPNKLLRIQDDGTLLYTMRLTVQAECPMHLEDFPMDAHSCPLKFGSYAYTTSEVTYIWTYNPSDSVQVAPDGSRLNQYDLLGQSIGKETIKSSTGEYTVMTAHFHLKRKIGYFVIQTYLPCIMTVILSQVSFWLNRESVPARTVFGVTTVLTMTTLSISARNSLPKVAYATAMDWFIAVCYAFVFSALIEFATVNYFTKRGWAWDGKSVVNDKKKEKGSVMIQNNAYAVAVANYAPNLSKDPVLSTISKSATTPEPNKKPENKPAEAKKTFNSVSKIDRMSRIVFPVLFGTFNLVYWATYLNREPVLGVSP
Gamma-aminobutyric acid receptor subunit alpha-1, sequence (P62813 whole entry): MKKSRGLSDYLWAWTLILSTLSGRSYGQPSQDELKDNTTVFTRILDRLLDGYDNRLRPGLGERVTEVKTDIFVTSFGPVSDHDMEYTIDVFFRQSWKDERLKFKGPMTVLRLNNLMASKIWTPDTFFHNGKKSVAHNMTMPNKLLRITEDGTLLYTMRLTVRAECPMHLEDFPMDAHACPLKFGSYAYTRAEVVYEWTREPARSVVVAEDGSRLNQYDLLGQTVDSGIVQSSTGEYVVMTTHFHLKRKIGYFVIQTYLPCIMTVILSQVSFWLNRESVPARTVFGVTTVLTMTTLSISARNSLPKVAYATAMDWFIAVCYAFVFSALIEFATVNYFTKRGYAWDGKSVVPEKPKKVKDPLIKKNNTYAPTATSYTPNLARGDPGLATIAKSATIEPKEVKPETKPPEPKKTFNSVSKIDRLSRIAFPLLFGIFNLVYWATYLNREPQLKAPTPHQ

Ki [1]: 6.8 nM and 17 nM
Ki [2]: 12.3 nM and 73 nM
Ki [3]: 80.3 nM
Ki [4]: 117 nM and 215 nM
SMILES: Cn1c2ccc(F)cc2c2c(C(=O)N3CCCC3)cn(-c3ccccc3)c(=O)c21 [6-FLUOR-2-FENYL-9-METHYL-4-(PYRROLIDINE-1-CARBONYL)-9H-PYRIDO[3,4B]INDOOL-1(2H)-ON]
